Patent publication US20210300873A1 (Clear Creek Bio, Inc., priority 2020, published 2021)
Counter-ions that a name gives are not always drawn. Like-named read-outs stand apart in the source and are kept apart here.

Type: physicochemical
Conditions: sodium salt; for Stability of the polymorphic form (in words): storage, ambient condition (temperature and humidity) or closed cap

Row | Structure (SMILES) | Time after which the form converts to Pattern C (ambient condition) | Time after which the form converts to Pattern C (closed cap storage) | Stability of the polymorphic form (in words) | further results
1 | Cc1c(-c2ccc(-c3ccccc3F)cc2)nc2ccc(F)cc2c1C(=O)O [Pattern B, brequinar sodium salt] | Pattern C after 4 days at ambient | – | – | –
2 | Cc1c(-c2ccc(-c3ccccc3F)cc2)nc2ccc(F)cc2c1C(=O)O [Pattern F, brequinar sodium salt] | – | Pattern C after 1 week (closed cap weeks | – | –
3 | Cc1c(-c2ccc(-c3ccccc3F)cc2)nc2ccc(F)cc2c1C(=O)O [Pattern I, brequinar sodium salt] | 2 days | – | unstable | –
4 | Cc1c(-c2ccc(-c3ccccc3F)cc2)nc2ccc(F)cc2c1C(=O)O [Pattern E, brequinar sodium salt] | – | Pattern C after 1 week (closed cap weeks | – | –
5 | Cc1c(-c2ccc(-c3ccccc3F)cc2)nc2ccc(F)cc2c1C(=O)O [Pattern C, 6-Flouro-2-(2′-fluoro-1,1′-biphenyl-4-yl)-3-methyl-4-quinolinecarboxylic acid sodium salt] | – | – | – | Stability of the polymorphic form (in words) (listed as polymorphic form C): stable
6 | Cc1c(-c2ccc(-c3ccccc3F)cc2)nc2ccc(F)cc2c1C(=O)O [Pattern A, brequinar sodium salt] | – | – | metastable | –
7 | Cc1c(-c2ccc(-c3ccccc3F)cc2)nc2ccc(F)cc2c1C(=O)O [Pattern G, brequinar sodium salt] | to Pattern C after 2 weeks at ambient | – | – | –
8 | Cc1c(-c2ccc(-c3ccccc3F)cc2)nc2ccc(F)cc2c1C(=O)O [Pattern J, brequinar sodium salt] | – | 2 weeks | – | –
9 | Cc1c(-c2ccc(-c3ccccc3F)cc2)nc2ccc(F)cc2c1C(=O)O [Pattern D, brequinar sodium salt] | to Pattern C after 3 days at ambient | – | unstable | –
